Holding throughout (format): cell-based
One assay has as its target T1, human TLR8 (Homo sapiens, UniProt Q9NR97).
T1 construct: host or cells: HEK-Blue cells
T1 sequence (Q9NR97 27-1041): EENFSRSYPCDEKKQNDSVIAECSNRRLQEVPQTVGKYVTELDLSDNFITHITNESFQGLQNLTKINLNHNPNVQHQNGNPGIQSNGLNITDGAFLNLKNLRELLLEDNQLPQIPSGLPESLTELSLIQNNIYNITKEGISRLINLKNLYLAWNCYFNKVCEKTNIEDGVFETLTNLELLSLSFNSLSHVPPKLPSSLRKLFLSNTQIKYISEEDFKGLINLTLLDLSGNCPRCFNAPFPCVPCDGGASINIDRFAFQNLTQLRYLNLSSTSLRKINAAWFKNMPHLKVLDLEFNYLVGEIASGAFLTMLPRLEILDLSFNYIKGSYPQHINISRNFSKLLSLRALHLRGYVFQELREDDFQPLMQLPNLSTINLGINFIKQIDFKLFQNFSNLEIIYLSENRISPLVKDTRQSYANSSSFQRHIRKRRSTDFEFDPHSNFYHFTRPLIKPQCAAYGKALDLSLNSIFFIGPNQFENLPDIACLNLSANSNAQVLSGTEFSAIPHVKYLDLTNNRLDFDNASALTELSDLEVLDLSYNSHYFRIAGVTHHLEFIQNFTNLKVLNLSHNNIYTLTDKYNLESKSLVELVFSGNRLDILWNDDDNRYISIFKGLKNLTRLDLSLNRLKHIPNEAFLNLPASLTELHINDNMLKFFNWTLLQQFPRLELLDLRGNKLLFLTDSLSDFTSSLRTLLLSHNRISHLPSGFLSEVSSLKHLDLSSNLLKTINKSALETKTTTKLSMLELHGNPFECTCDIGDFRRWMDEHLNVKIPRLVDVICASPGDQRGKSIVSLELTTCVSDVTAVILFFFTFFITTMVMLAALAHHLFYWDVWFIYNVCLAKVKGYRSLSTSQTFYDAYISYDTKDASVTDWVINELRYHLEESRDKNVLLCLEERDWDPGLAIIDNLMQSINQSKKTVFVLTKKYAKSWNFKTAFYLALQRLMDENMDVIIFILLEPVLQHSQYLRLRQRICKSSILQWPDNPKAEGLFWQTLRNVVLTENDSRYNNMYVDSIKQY
Nature of the assay: TLR8 inhibition reporter assay (HEK-Blue cells, SEAP reporter, R848 stimulation). As to conditions: HEK-Blue cells overexpressing human TLR8, SEAP reporter, R848 15.9 μM; read-out: TLR8 IC50. In a few lines:
(§1)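 Compound treatment: 30 min, RT, 0.05 nM–50 μM final. Agonist: TLR7 gardiquimod 7.5 μM; TLR8 R848 15.9 μM; TLR9 ODN2006 5 nM. Incubation 22 h, 37 °C, 5% CO2. Readout SEAP, HEK-Blue Detection.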

A further assay addresses T2, human TLR7 (Homo sapiens, UniProt Q9NYK1).
T2 construct: host or cells: HEK-Blue cells
T2 sequence (Q9NYK1 27-1049): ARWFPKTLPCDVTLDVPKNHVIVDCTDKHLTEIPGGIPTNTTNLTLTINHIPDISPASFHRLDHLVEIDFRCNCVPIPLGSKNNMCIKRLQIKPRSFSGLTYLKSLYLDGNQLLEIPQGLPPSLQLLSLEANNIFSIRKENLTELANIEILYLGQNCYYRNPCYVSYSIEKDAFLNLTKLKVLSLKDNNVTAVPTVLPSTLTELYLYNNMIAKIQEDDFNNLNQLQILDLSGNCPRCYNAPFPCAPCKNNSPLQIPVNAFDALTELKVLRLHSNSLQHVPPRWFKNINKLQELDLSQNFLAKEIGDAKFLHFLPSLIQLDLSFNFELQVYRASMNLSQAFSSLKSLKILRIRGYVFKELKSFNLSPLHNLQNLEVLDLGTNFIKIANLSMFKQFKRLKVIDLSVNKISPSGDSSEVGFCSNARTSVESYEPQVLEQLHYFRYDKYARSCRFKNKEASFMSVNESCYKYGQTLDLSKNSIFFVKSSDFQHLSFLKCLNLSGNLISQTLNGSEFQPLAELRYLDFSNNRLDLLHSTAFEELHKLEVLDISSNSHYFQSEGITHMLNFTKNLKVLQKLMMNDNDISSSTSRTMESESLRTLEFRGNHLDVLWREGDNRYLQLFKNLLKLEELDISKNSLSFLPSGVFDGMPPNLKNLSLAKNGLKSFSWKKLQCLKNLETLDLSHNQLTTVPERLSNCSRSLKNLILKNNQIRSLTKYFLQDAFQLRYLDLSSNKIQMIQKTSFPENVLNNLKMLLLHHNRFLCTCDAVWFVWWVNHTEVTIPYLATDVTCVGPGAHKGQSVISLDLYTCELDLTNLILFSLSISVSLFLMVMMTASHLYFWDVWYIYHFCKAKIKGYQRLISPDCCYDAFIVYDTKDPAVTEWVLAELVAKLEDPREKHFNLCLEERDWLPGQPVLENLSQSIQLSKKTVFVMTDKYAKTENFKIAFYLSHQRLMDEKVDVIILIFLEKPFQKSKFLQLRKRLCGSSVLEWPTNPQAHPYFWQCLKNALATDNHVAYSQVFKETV
Kind of assay: TLR7 inhibition reporter assay (HEK-Blue cells, SEAP reporter, gardiquimod stimulation). Conditions: HEK-Blue cells overexpressing human TLR7, SEAP reporter, gardiquimod 7.5 μM; read-out: TLR7 IC50. An outline of the steps:
as §1

The target of another assay is T3, human TLR9 (Homo sapiens, UniProt Q9NR96).
T3 construct: host or cells: HEK-Blue cells
T3 sequence (Q9NR96 26-1032): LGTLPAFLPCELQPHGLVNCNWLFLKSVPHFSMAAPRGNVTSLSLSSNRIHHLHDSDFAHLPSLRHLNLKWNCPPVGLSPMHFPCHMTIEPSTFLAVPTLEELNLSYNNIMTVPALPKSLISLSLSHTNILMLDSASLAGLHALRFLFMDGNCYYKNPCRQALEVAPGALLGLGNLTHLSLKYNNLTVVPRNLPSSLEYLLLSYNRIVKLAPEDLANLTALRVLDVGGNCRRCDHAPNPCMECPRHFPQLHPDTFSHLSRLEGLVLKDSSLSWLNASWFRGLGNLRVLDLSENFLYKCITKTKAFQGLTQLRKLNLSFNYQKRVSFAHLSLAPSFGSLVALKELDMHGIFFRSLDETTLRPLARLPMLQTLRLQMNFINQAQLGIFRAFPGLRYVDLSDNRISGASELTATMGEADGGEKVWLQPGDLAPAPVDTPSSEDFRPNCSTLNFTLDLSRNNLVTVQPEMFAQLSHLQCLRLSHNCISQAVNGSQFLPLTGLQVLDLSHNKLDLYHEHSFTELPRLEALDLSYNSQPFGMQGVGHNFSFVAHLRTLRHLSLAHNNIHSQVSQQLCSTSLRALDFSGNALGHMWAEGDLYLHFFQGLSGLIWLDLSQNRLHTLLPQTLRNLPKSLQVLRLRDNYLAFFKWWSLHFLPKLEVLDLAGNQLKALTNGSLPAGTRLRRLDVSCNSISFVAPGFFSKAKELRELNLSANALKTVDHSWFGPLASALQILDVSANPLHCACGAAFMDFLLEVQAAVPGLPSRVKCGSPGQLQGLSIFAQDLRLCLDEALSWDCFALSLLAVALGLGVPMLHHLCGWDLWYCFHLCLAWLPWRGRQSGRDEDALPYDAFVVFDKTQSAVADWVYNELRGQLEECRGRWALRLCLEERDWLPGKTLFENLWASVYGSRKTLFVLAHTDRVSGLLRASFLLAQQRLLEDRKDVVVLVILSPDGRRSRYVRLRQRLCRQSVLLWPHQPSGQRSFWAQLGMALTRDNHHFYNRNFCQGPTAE
Kind of assay: TLR9 inhibition reporter assay (HEK-Blue cells, SEAP reporter, ODN2006 stimulation). As to conditions: HEK-Blue cells overexpressing human TLR9, SEAP reporter, ODN2006 5 nM. An outline of the steps:
as §1

Regarding `Cc1c(-c2[nH]c3sc(C4CCC(N5CC6(CCOCC6)C5)CC4)nc3c2C(C)C)cn2ncnc2c1C` (single isomer, unassigned) [Example 240, 2-(4-(5-(7,8-dimethyl-[1,2,4]triazolo[1,5-a]pyridin-6-yl)-6-isopropyl-4H-pyrrolo[3,2-d]thiazol-2-yl)cyclohexyl)-7-oxa-2-azaspiro[3.5]nonane], the IC50 on human TLR8 was 2.82 nM; at human TLR7 it was 3.72 nM; at human TLR9, 6230 nM.

For `Cc1c(-c2[nH]c3sc(C4CCC(NC5COC5)CC4)nc3c2C(C)C)cn(C)c(=O)c1C` (single isomer, unassigned) [Example 241, 5-(6-isopropyl-2-(4-(oxetan-3-ylamino)cyclohexyl)-4H-pyrrolo[3,2-d]thiazol-5-yl)-1,3,4-trimethylpyridin-2(1H)-one], the IC50 on human TLR8 was 3.19 nM; at human TLR7, 8.06 nM; on human TLR9, > 50000 nM.

For `Cc1c(-c2[nH]c3sc(C4CCC(NC5COC5)CC4)nc3c2C(C)C)cn(C)c(=O)c1C` (single isomer, unassigned) [Example 242, 5-(6-isopropyl-2-(4-(oxetan-3-ylamino)cyclohexyl)-4H-pyrrolo[3,2-d]thiazol-5-yl)-1,3,4-trimethylpyridin-2(1H)-one], the IC50 on human TLR8 is 16.1 nM; on human TLR7, 47.1 nM; against human TLR9 it was > 50000 nM.

For `COC(C)(C)CNC1CCC(c2nc3c(C(C)C)c(-c4cn(C)c(=O)c(C)c4C)[nH]c3s2)CC1` (single isomer, unassigned) [Example 243, 5-(6-isopropyl-2-(4-((2-methoxy-2-methylpropyl)amino)cyclohexyl)-4H-pyrrolo[3,2-d]thiazol-5-yl)-1,3,4-trimethylpyridin-2(1H)-one], the values for the IC50 at human TLR8, at human TLR7 and against human TLR9 were 2.1 nM, 16.4 nM and 29800 nM, respectively.

`COC(C)(C)CNC1CCC(c2nc3c(C(C)C)c(-c4cn(C)c(=O)c(C)c4C)[nH]c3s2)CC1` (single isomer, unassigned) [Example 244, 5-(6-isopropyl-2-(4-((2-methoxy-2-methylpropyl)amino)cyclohexyl)-4H-pyrrolo[3,2-d]thiazol-5-yl)-1,3,4-trimethylpyridin-2(1H)-one]: the results for the IC50 at human TLR8, on human TLR7 and at human TLR9 were 17.5 nM, 44 nM and 25300 nM, respectively.

Consider `Cc1c(-c2[nH]c3sc(C4CCC(N5CC6(COC6)C5)CC4)nc3c2C(C)C)cn(C)c(=O)c1C` (single isomer, unassigned) [Example 245, 5-(2-(4-(2-oxa-6-azaspiro[3.3]heptan-6-yl)cyclohexyl)-6-isopropyl-4H-pyrrolo[3,2-d]thiazol-5-yl)-1,3,4-trimethylpyridin-2(1H)-one], for which the concentration for half-maximal inhibition (IC50) at human TLR8 was found to be 0.65 nM; at human TLR7, 2.6 nM; at human TLR9, 22900 nM.

`Cc1c(-c2[nH]c3sc(C4CCC(N5CC6(COC6)C5)CC4)nc3c2C(C)C)cn(C)c(=O)c1C` (single isomer, unassigned) [Example 246, 5-(2-(4-(2-oxa-6-azaspiro[3.3]heptan-6-yl)cyclohexyl)-6-isopropyl-4H-pyrrolo[3,2-d]thiazol-5-yl)-1,3,4-trimethylpyridin-2(1H)-one]: the IC50 at human TLR8 is 154 nM; at human TLR7 it was 60.8 nM; against human TLR9, > 50000 nM.

As for `CCN(C)C1CCC(c2nc3c(C(C)C)c(-c4cn(C)c(=O)c(C)c4C)[nH]c3s2)CC1` (single isomer, unassigned) [Example 247, 5-(2-(4-(ethyl(methyl)amino)cyclohexyl)-6-isopropyl-4H-pyrrolo[3,2-d]thiazol-5-yl)-1,3,4-trimethylpyridin-2(1H)-one], the IC50 was found to be 4.42 nM on human TLR8, 5.87 nM on human TLR7 and 42500 nM against human TLR9.

As for `CCN(C)C1CCC(c2nc3c(C(C)C)c(-c4cn(C)c(=O)c(C)c4C)[nH]c3s2)CC1` (single isomer, unassigned) [Example 248, 5-(2-(4-(ethyl(methyl)amino)cyclohexyl)-6-isopropyl-4H-pyrrolo[3,2-d]thiazol-5-yl)-1,3,4-trimethylpyridin-2(1H)-one], the results for the IC50 on human TLR8, at human TLR7 and against human TLR9 were 12 nM, 8.33 nM and 14000 nM, respectively.

Consider `Cc1c(-c2[nH]c3sc(C4CCC(NC5CCOCC5)CC4)nc3c2C(C)C)cn(C)c(=O)c1C` (single isomer, unassigned) [Example 249, 5-(6-isopropyl-2-(4-((tetrahydro-2H-pyran-4-yl)amino)cyclohexyl)-4H-pyrrolo[3,2-d]thiazol-5-yl)-1,3,4-trimethylpyridin-2(1H)-one], for which the figures for the IC50 at human TLR8, at human TLR7 and on human TLR9 were 1.19 nM, 6.34 nM and 19800 nM, respectively.

The values above are taken from patent publication US20230139171A1 (SITA Information Networking Computing UK Limited, priority 2019, published 2023).
